Results: the supplement of paper PMC11451515

Legend:
Conditions in all cases: 48 h
P12-Ichikawa [1] = assay: AUC of viability dose-response curve (% viability x log10 dose units); higher = less sensitive
How it was run: (§1)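 Over 48 h at 37°C, leukemia cells in 1536-well plates (500 or 1000 cells/well), adapted to each medium, received library compounds in DMSO at 11 threefold doses from 47 μM to 0.79 nM. CellTiter-Glo One luminescence, normalised per plate to DMSO and cell-free wells, was fitted by a four-parameter log-logistic function of log10 dose. The area under the curve was then integrated by trapezoidal rule, after scaling curves above full viability and removing those that failed quality control.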

NOMO1 [2] = assay: as above
How it was run: as §1

SEM cells [3] = assay: as above
How it was run: as §1

P12-Ichikawa [4] = assay: cell viability relative to DMSO control; higher = less cytotoxic
How it was run: (§2)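 Viability was expressed as a per-plate percentage of DMSO wells, with cell-free wells as background. Leukemia cells (NOMO1 or SEM at 500 cells/well, P12-Ichikawa at 1000 cells/well) were adapted for at least four passages in each medium and seeded in 1536-well plates (5 μl). Library compounds in DMSO were pin-dosed over an 11-point threefold series from 47 μM to 0.79 nM, and CellTiter-Glo One luminescence was read after 48 h at 37°C.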

NOMO1 [5] = assay: as above
How it was run: as §2

SEM cells [6] = assay: as above
How it was run: as §2

O=C1C[C@@H](c2ccc(O)cc2)Oc2cc(O)cc(O)c21
AUC of viability dose-response curve
Conditions	NOMO1 [2]	P12-Ichikawa [1]	SEM cells [3]
HPLM + 10% dialyzed FBS	437	433	468
RPMI 5 mM glucose + 10% FBS	476	462	382
RPMI 5 mM glucose + 10% dialyzed FBS	458	456	470

cell viability [%]
Conditions	NOMO1 [5]	P12-Ichikawa [4]	SEM cells [6]
HPLM + 10% dialyzed FBS, 0.000781 µM	–	130	123
HPLM + 10% dialyzed FBS, 0.00234 µM	–	119	115
HPLM + 10% dialyzed FBS, 0.00702 µM	–	120	122
HPLM + 10% dialyzed FBS, 0.0211 µM	–	116	119
HPLM + 10% dialyzed FBS, 0.0632 µM	–	119	119
HPLM + 10% dialyzed FBS, 0.19 µM	–	120	118
HPLM + 10% dialyzed FBS, 0.569 µM	–	112	125
HPLM + 10% dialyzed FBS, 1.71 µM	–	110	110
HPLM + 10% dialyzed FBS, 5.12 µM	–	102	116
HPLM + 10% dialyzed FBS, 15.4 µM	–	114	120
HPLM + 10% dialyzed FBS, 46.1 µM	–	121	106
RPMI 5 mM glucose + 10% FBS, 0.000781 µM	128	125	102
RPMI 5 mM glucose + 10% FBS, 0.00234 µM	104	124	91.4
RPMI 5 mM glucose + 10% FBS, 0.00702 µM	104	119	79.3
RPMI 5 mM glucose + 10% FBS, 0.0211 µM	100	124	83.3
RPMI 5 mM glucose + 10% FBS, 0.0632 µM	126	118	91.7
RPMI 5 mM glucose + 10% FBS, 0.19 µM	124	129	83
RPMI 5 mM glucose + 10% FBS, 0.569 µM	116	114	64.5
RPMI 5 mM glucose + 10% FBS, 1.71 µM	107	121	77.7
RPMI 5 mM glucose + 10% FBS, 5.12 µM	127	107	67.2
RPMI 5 mM glucose + 10% FBS, 15.4 µM	106	110	80.4
RPMI 5 mM glucose + 10% FBS, 46.1 µM	111	114	64
RPMI 5 mM glucose + 10% dialyzed FBS, 0.000781 µM	111	120	124
RPMI 5 mM glucose + 10% dialyzed FBS, 0.00234 µM	108	120	116
RPMI 5 mM glucose + 10% dialyzed FBS, 0.00702 µM	117	120	130
RPMI 5 mM glucose + 10% dialyzed FBS, 0.0211 µM	110	122	123
RPMI 5 mM glucose + 10% dialyzed FBS, 0.0632 µM	120	115	124
RPMI 5 mM glucose + 10% dialyzed FBS, 0.19 µM	110	130	114
RPMI 5 mM glucose + 10% dialyzed FBS, 0.569 µM	119	120	122
RPMI 5 mM glucose + 10% dialyzed FBS, 1.71 µM	108	104	115
RPMI 5 mM glucose + 10% dialyzed FBS, 5.12 µM	86.2	110	121
RPMI 5 mM glucose + 10% dialyzed FBS, 15.4 µM	109	110	139
RPMI 5 mM glucose + 10% dialyzed FBS, 46.1 µM	97.9	103	88.5

CC1(C)OC2CC3C4CC(F)C/5=C/C(=O)/C=C\C5(C)C4C(O)CC3(C)[C@@]2(O1)C(=O)CO (some centres undefined)
AUC of viability dose-response curve
Conditions	NOMO1 [2]	P12-Ichikawa [1]	SEM cells [3]
HPLM + 10% dialyzed FBS	454	390	386
RPMI 5 mM glucose + 10% FBS	465	340	360
RPMI 5 mM glucose + 10% dialyzed FBS	456	325	354

cell viability [%]
Conditions	NOMO1 [5]	P12-Ichikawa [4]	SEM cells [6]
HPLM + 10% dialyzed FBS, 0.000781 µM	105	110	97.4
HPLM + 10% dialyzed FBS, 0.00234 µM	111	117	95.3
HPLM + 10% dialyzed FBS, 0.00702 µM	118	114	95.6
HPLM + 10% dialyzed FBS, 0.0211 µM	119	115	102
HPLM + 10% dialyzed FBS, 0.0632 µM	126	107	94.6
HPLM + 10% dialyzed FBS, 0.19 µM	117	94.9	85.9
HPLM + 10% dialyzed FBS, 0.569 µM	110	78	77.2
HPLM + 10% dialyzed FBS, 1.71 µM	124	73.8	65.9
HPLM + 10% dialyzed FBS, 5.12 µM	123	71.6	65.7
HPLM + 10% dialyzed FBS, 15.4 µM	124	72.5	33.9
HPLM + 10% dialyzed FBS, 46.1 µM	119	70.7	71.1
RPMI 5 mM glucose + 10% FBS, 0.000781 µM	113	–	91.4
RPMI 5 mM glucose + 10% FBS, 0.00234 µM	108	–	98.9
RPMI 5 mM glucose + 10% FBS, 0.00702 µM	102	–	104
RPMI 5 mM glucose + 10% FBS, 0.0211 µM	115	–	105
RPMI 5 mM glucose + 10% FBS, 0.0632 µM	121	–	101
RPMI 5 mM glucose + 10% FBS, 0.19 µM	127	–	77.5
RPMI 5 mM glucose + 10% FBS, 0.569 µM	116	–	60.7
RPMI 5 mM glucose + 10% FBS, 1.71 µM	112	–	56
RPMI 5 mM glucose + 10% FBS, 5.12 µM	117	–	59.6
RPMI 5 mM glucose + 10% FBS, 15.4 µM	119	–	20.5
RPMI 5 mM glucose + 10% FBS, 46.1 µM	119	–	60.3
RPMI 5 mM glucose + 10% dialyzed FBS, 0.000781 µM	124	115	109
RPMI 5 mM glucose + 10% dialyzed FBS, 0.00234 µM	113	119	95.4
RPMI 5 mM glucose + 10% dialyzed FBS, 0.00702 µM	125	117	122
RPMI 5 mM glucose + 10% dialyzed FBS, 0.0211 µM	122	102	125
RPMI 5 mM glucose + 10% dialyzed FBS, 0.0632 µM	123	94.4	106
RPMI 5 mM glucose + 10% dialyzed FBS, 0.19 µM	150	76.6	78
RPMI 5 mM glucose + 10% dialyzed FBS, 0.569 µM	123	61.4	75.4
RPMI 5 mM glucose + 10% dialyzed FBS, 1.71 µM	138	52.1	62.7
RPMI 5 mM glucose + 10% dialyzed FBS, 5.12 µM	135	50.8	55.9
RPMI 5 mM glucose + 10% dialyzed FBS, 15.4 µM	119	45.9	26
RPMI 5 mM glucose + 10% dialyzed FBS, 46.1 µM	132	49	61.6
